Measured values as given in ChEMBL document CHEMBL5370584, “Reprogramming Energy Metabolism with Synthesized PDK Inhibitors Based on Dichloroacetate Derivatives and Targeted Delivery Systems for Enhanced Cancer Therapy” (J Med Chem, 2023).
The source made the active and inactive calls. The calls are words filed in the database; no cut-off is given here.

Assays:
MOLM-13 = test: Antiproliferative activity against human MOLM-13 cells assessed as inhibition of cell growth incubated for 24 hrs by MTT assay; assay type: functional, cell-based; conditions: MOLM-13, 24 h
4T1 [1] = test: Antiproliferative activity against mouse 4T1 cells assessed as inhibition of cell growth incubated for 24 hrs by MTT assay; assay type: functional, cell-based; conditions: 4T1, 24 h
[2] = (§1) Antiproliferative activity against African green monkey COS7 cells assessed as inhibition of cell growth incubated for 24 hrs by MTT assay; assay type: toxicity, cell-based, Chlorocebus aethiops, COS-7; conditions: African green monkey (Chlorocebus aethiops), COS-7 cells
NB-4 = test: Antiproliferative activity against human NB4 cells assessed as inhibition of cell growth incubated for 24 hrs by MTT assay; assay type: functional, cell-based; conditions: NB-4, 24 h
HeLa = test: Antiproliferative activity against human HeLa cells assessed as inhibition of cell growth incubated for 24 hrs by MTT assay; assay type: functional, cell-based
MCF7 = test: Antiproliferative activity against human MCF7 cells assessed as inhibition of cell growth incubated for 24 hrs by MTT assay; assay type: functional, cell-based; conditions: MCF7, 24 h
[3] = target: [Pyruvate dehydrogenase (acetyl-transferring)] kinase isozyme 1, mitochondrial (Homo sapiens, UniProt Q15118); test: Inhibition of PDK1 (unknown origin) incubated for 30 mins in presence of ATP by kinase glo luminescent kinase assay
[4] = Inhibition of PDK (unknown origin); parameters: species or system Homo sapiens
[5] = Inhibition of PDK (unknown origin) incubated for 10 mins in presence of ATP; parameters: species or system Homo sapiens
Breast cancer cell line = test: Antiproliferative activity against human Breast cancer cell line assessed as inhibition of cell viability measured after 72 hrs by MTT assay; assay type: functional, cell-based
Prostate cell = test: Antiproliferative activity against human prostate cell assessed as inhibition of cell viability measured after 72 hrs by MTT assay; assay type: functional, cell-based
4T1 [6] = test: Inhibition of glycolysis in mouse 4T1 cell lysates assessed as reduction in extracellular acidification rate at 20 mM measured after 6 hrs; assay type: functional, cell-based
COS-7 = test: as §1; assay type: toxicity, cell-based, Chlorocebus aethiops; conditions: cos-7
[7] = target: [Pyruvate dehydrogenase (acetyl-transferring)] kinase isozyme 1, mitochondrial (Mus musculus) (UniProt Q8BFP9); test: Inhibition of PDK1 transcription in mouse 4T1 cells at 4 uM incubated for 24 hrs by qPCR analysis; assay type: cell-based
4T1 [8] = test: Inhibition of PDK4 expression in mouse 4T1 cells at 4 uM incubated for 24 hrs by Western blot analysis; assay type: functional, cell-based
[9] = target: [Pyruvate dehydrogenase (acetyl-transferring)] kinase isozyme 4, mitochondrial (Mus musculus) (UniProt O70571); test: Inhibition of PDK4 transcription in mouse 4T1 cells at 4 uM incubated for 24 hrs by qPCR analysis; assay type: cell-based
4T1 [10] = test: Inhibition of glycolysis in mouse 4T1 cell lysates assessed as reduction in extracellular acidification rate at 2 uM measured after 6 hrs; assay type: functional, cell-based
[11] = target: [Pyruvate dehydrogenase (acetyl-transferring)] kinase isozyme 2, mitochondrial (Mus musculus) (UniProt Q9JK42); test: Inhibition of PDK2 transcription in mouse 4T1 cells at 4 uM incubated for 24 hrs by qPCR analysis; assay type: cell-based
[12] = target: [Pyruvate dehydrogenase (acetyl-transferring)] kinase isozyme 3, mitochondrial (Mus musculus) (UniProt Q922H2); test: Inhibition of PDK3 transcription in mouse 4T1 cells at 4 uM incubated for 24 hrs by qPCR analysis; assay type: cell-based
4T1 [13] = test: Inhibition of PDK1 expression in mouse 4T1 cells at 4 uM incubated for 24 hrs by Western blot analysis; assay type: functional, cell-based

[Pyruvate dehydrogenase (acetyl-transferring)] kinase isozyme 1, mitochondrial, sequence (Q15118 whole entry): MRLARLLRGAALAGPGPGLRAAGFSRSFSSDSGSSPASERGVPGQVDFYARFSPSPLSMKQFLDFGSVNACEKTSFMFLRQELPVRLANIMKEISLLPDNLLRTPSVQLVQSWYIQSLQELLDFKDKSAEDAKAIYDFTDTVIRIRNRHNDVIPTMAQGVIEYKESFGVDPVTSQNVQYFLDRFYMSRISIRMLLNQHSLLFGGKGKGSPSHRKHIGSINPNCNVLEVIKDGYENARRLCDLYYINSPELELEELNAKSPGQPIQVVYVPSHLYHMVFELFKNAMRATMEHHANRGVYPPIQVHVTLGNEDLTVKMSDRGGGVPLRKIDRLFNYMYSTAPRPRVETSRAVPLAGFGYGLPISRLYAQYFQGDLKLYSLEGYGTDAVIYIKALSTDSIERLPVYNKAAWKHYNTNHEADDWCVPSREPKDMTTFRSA
[Pyruvate dehydrogenase (acetyl-transferring)] kinase isozyme 1, mitochondrial (Mus musculus), sequence (Q8BFP9 whole entry): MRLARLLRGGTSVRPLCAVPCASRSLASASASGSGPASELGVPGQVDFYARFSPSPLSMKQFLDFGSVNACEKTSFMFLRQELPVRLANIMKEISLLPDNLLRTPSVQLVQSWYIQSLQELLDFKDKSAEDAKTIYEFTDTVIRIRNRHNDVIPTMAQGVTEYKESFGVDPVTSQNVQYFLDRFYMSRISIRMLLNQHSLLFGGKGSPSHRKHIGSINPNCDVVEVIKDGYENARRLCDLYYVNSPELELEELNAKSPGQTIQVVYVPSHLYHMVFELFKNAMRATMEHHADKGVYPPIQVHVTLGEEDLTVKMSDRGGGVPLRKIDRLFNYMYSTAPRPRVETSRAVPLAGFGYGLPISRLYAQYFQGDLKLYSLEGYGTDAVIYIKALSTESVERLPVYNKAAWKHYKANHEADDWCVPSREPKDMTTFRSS
[Pyruvate dehydrogenase (acetyl-transferring)] kinase isozyme 4, mitochondrial (Mus musculus), sequence (O70571 whole entry): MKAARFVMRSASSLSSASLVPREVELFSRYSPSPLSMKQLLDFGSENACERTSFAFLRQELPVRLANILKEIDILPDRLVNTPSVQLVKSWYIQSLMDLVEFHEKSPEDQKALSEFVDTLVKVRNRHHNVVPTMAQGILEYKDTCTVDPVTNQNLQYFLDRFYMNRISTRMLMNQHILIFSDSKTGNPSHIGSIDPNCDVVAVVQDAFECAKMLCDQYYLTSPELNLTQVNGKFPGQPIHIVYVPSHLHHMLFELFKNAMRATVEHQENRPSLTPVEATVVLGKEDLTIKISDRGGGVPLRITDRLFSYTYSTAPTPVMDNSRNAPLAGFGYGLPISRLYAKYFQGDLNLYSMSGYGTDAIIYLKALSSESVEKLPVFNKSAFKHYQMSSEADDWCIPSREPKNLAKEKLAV
[Pyruvate dehydrogenase (acetyl-transferring)] kinase isozyme 3, mitochondrial (Mus musculus), sequence (Q922H2 whole entry): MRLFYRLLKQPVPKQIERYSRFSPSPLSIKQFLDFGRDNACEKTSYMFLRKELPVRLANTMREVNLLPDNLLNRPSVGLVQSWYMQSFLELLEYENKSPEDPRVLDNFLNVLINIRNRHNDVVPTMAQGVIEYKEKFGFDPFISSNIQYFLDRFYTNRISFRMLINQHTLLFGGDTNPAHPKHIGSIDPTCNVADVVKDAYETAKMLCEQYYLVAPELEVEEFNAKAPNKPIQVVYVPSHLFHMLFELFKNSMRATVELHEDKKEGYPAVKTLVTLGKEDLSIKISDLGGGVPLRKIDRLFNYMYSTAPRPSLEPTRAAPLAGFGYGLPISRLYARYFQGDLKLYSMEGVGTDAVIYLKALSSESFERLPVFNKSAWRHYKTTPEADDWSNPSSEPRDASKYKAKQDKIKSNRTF

Row | Structure (SMILES) | IC50 (MOLM-13) | IC50 (4T1 [1]) | IC50 at 24 h [2] | IC50 (NB-4) | IC50 (HeLa) | IC50 (MCF7) | EC50 [3] | further results
1 | O=C(CCCCCCCNC(=O)C(Cl)Cl)Nc1ccccc1[As]1SCCCS1 | 2.88 µM | 2.98 µM | 4.8 µM | 1.73 µM | 2.09 µM | 2.82 µM | 1.9 µM | 
2 | C[C@@H]1CN(C(=O)[C@@](C)(O)C(F)(F)F)[C@@H](C)CN1C(=O)c1ccc(C#N)cc1 |  |  |  |  |  |  |  | EC50 [4]: 0.016 µM
3 | O=C([O-])C(Cl)Cl.[Na+] [SODIUM DICHLOROACETATE] |  |  |  |  |  |  |  | EC50 [5]: 180 µM
4 | O=C(CCNC(=O)C(Cl)Cl)Nc1ccc([As]2SCCCS2)cc1 | 1.34 µM | 2.68 µM | 6.27 µM | 1.22 µM | 3.15 µM | 3.2 µM | 1.9 µM | 
5 | O=C(CCNC(=O)C(Cl)Cl)Nc1ccccc1[As]1SCCCS1 | 1.68 µM | 3.23 µM | 5.23 µM | 1.61 µM | 2.54 µM | 3.56 µM | 2.6 µM | 
6 | CC1(C)CC[C@]2(C(=O)O)CC[C@]3(C)C(=CC[C@@H]4[C@@]5(C)CC[C@H](O[C@@H]6O[C@H](CO[C@@H]7OC[C@H](O)[C@H](O)[C@H]7O)[C@@H](O)[C@H](O)[C@H]6NC(=O)C(Cl)Cl)C(C)(C)[C@@H]5CC[C@]43C)[C@@H]2C1 |  |  |  |  |  |  |  | IC50 (Breast cancer cell line): 0.43 µM
7 | O=C(CCCCCCNC(=O)C(Cl)Cl)Nc1ccccc1[As]1SCCCS1 | 1.98 µM | 2.65 µM | 8.07 µM | 1.63 µM | 1.95 µM | 2.94 µM | 1.2 µM | 
8 | O=C(Nc1ccccc1[As]1SCCCS1)C(Cl)Cl | 0.48 µM | 1.1 µM | 1.87 µM | 0.52 µM | 0.27 µM | 0.77 µM | 9.6 µM | 
9 | O=C(CCCCC[P+](c1ccccc1)(c1ccccc1)c1ccccc1)NC(COC(=O)C(Cl)Cl)(COC(=O)C(Cl)Cl)COC(=O)C(Cl)Cl |  |  |  |  |  |  |  | IC50 (Prostate cell): 17 µM
10 | O=C(O)C(Cl)Cl |  |  |  |  |  |  |  | inhibition (4T1 [6]): inactive
11 | O=C(CCCCCCNC(=O)C(Cl)Cl)Nc1ccc([As]2SCCCS2)cc1 | 1.29 µM | 2.1 µM | 9.66 µM | 1.16 µM | 2.5 µM | 1.94 µM | 0.19 µM | 
12 | O=C(CCCCCNC(=O)C(Cl)Cl)Nc1ccccc1[As]1SCCCS1 | 1.61 µM | 2.12 µM | 6.13 µM | 1.98 µM | 3.75 µM | 2.11 µM | 3.2 µM | 
13 | O=C(CCCCCCCCCCCNC(=O)C(Cl)Cl)Nc1ccccc1[As]1SCCCS1 | 1.35 µM | 2.98 µM | 3 µM | 0.92 µM | 1.65 µM | 1.82 µM | 1.6 µM | 
14 | O=C(CCCNC(=O)C(Cl)Cl)Nc1ccc([As]2SCCCS2)cc1 | 1.34 µM | 2.8 µM | 6.12 µM | 1.25 µM | 3.52 µM | 6.74 µM | 1 µM | 
15 | O=C(CCCCNC(=O)C(Cl)Cl)Nc1ccccc1[As]1SCCCS1 | 1.77 µM | 3.7 µM | 5.58 µM | 1.7 µM | 4.72 µM | 5.32 µM | 0.65 µM | 
16 | O=C(CCCCCCCNC(=O)C(Cl)Cl)Nc1ccc([As]2SCCCS2)cc1 | 1.24 µM | 1.73 µM | 9.62 µM | 1.09 µM | 1.89 µM | 1.9 µM | 0.62 µM | 
17 | O=C(O)C(Cl)Cl [DICHLOROACETIC ACID] | 22000 µM | 30000 µM |  | 20000 µM | 25000 µM | 35000 µM |  | IC50 (COS-7): 40000 µM
18 | C[C@@H]1C[C@H]2O[C@@H]2/C=C\C=C\C(=O)Cc2c(Cl)c(O)cc(O)c2C(=O)O1 [RADICICOL] |  |  |  |  |  |  |  | EC50 [5]: 1100 µM
19 | CN(C)C(=O)c1ccc(S(=O)(=O)c2ccc(NC(=O)[C@@](C)(O)C(F)(F)F)c(Cl)c2)cc1 |  |  |  |  |  |  |  | EC50 [5]: 0.087 µM
20 | O=C(CCCCNC(=O)C(Cl)Cl)Nc1ccc([As]2SCCCS2)cc1 | 1.22 µM | 2.77 µM | 4.6 µM | 1.35 µM | 3.22 µM | 9.31 µM | 0.93 µM | 
21 | O=C(CCCNC(=O)C(Cl)Cl)Nc1ccccc1[As]1SCCCS1 | 1.97 µM | 332 µM | 6.06 µM | 2.1 µM | 3.34 µM | 2.85 µM | 2.9 µM | 
22 | O=C(Nc1ccc([As]2SCCCS2)cc1)C(Cl)Cl | 0.91 µM | 0.98 µM | 3.74 µM | 0.96 µM | 0.69 µM | 1.79 µM | 4.7 µM | inhibition [7]: inactive; inhibition (4T1 [8]): inactive; inhibition [9]: inactive; inhibition (4T1 [10]): inactive; inhibition [11]: inactive; inhibition [12]: inactive; inhibition (4T1 [13]): inactive
23 | CC(C)c1ccc(COc2ccc(CC(=O)NCCN)cc2Cl)cc1 |  |  |  |  |  |  |  | EC50 [4]: 2 µM
24 | O=S(=O)(c1ccc(O)cc1O)N1Cc2cc(O)cc(O)c2C1 |  |  |  |  |  |  |  | EC50 [5]: 0.8 µM
25 | O=C(CCCCCCCCCCCNC(=O)C(Cl)Cl)Nc1ccc([As]2SCCCS2)cc1 | 0.8 µM | 1.4 µM | 1.15 µM | 0.71 µM | 0.94 µM | 1.53 µM | 1.3 µM | 
26 | COc1ccc(-c2c(-c3ccc(O)cc3O)n[nH]c2C)cc1 |  |  |  |  |  |  |  | EC50 [5]: 648 µM
